Source: patent publication US7288273B1, “Gallotannins and ellagitannins as regulators of cytokine release” (The Penn State Research Foundation, priority 2000, dated 2007)

System: TNF-α secretion from h-PBMC's
Experiment: TNF-α release from h-PBMC's, ELISA
Type: cell-based, human
Settings: 24 hours, ± SD
Method: Authentic samples of agrimoniin and coriariin A were supplied by Professor Yoshida (Okayama University, Japan). Dimeric gallotannin (analog of coriariin A) and β-D-PGG were synthesized as described. LPS (E. coli 055:B5 phenol extract, MW range 50-100 KD). Ficoll-Histopaque (ρ=1.077 g/mL), Fetal Bovine Serum, sterile, hybridoma tested (FCS), gentamicin 10 mg/mL. L-glutamine, 200 mM. Dextran B-512 Leuconostoc Av M.W. 580000, and Trypan Blue stain were purchased from Sigma. Hanks Buffer Saline Solution 1×, with phenol red, mediatech (HBSS) and RPMI 1640 1×, mediatech were purchased from Fisher Scientific, Human IL-1β and TNF-α Enzyme Linked ImmunoSorbent Assay (ELISA) kits were purchased from R and D Systems, Minneapolis, Minn. Fresh heparinized blood was obtained from health human subjects (ages 20-34).
Dose-Response Data: General Procedure. H-PBMC's were isolated by reported procedures (10. 18). The cells counted and the viability was determined by Trypan Blue exclusion (typically, viability exceeded 95%). The concentration of the cells in the 0.5 mL wells was adjusted to 1×10^6 cells/well by diluting with the required amount of RPMI.
The appropriate amount of a tannin (or LPS) stock solution in HBSS was added to each well to furnish the concentration values reported in the Figures. […] The culture plates were incubated in a 5% CO2, 37° C. humidified incubator for the indicated time. At the end of the time interval, 450 μL of the culture supernatant from each well was harvested, after centrifugation at 400 g, 25° C., 10 min. with brake, and stored at −78° C. pending ELISA analysis for the cytokine(s). The ELISA assays were conducted per the manufacturer's instructions using standard calibration curves to calculate cytokine concentration from observed absorbance readings. The cytokine values reported are averages of three runs±SE.
The dimeric antitumor ellagitannins coriariin A and agrimoniin, the monomeric gallotannin β-D-pentagalloylglucose (β-D-PGG) and the dimeric gallotannin of this invention were all examined in this study. The dimeric gallotannin is an analog of coriariin A and is identical to the parent ellagitannin except that the galloyl rings at O(4) and O(6) are not joined in a hexahydroxydiphenoyl (HHDP) linkage. h-PBMC's were incubated with the compound under investigation for the indicated length of time and the amounts of both IL-1β and, independently, TNF-α, present in the culture supernatants was determined using commercially available ELISA kits. In each case, LPS was used as a positive control while untreated cells were reserved as negative controls.
In the first study, the induction of TNF-α secretion from h-PBMC's in the presence of each compound 17c-21c was measured. The h-PBMC's were incubated with each compound for 24 hours. The TNF-α levels in the cell culture supernatant were assayed by Enzyme Linked ImmunoSorbant Assay (ELISA). The data point for each assay represent the mean of triplicate measurements. […] (See FIG. 11).

Row | SMILES | TNF-α secreted in the presence of 17c-21c (compound 0.6 μM) | TNF-α secreted in the presence of 17c-21c (compound 2.8 μM) | TNF-α secreted in the presence of 17c-21c (compound 5.6 μM) | TNF-α secreted in the presence of 17c-21c (compound 11.2 μM) | TNF-α secreted in the presence of 17c-21c (compound 16.8 μM) | TNF-α secreted in the presence of 17c-21c (compound 22.3 μM) | TNF-α secreted in the presence of 17c-21c (compound 27.9 μM) | TNF-α secreted in the presence of 17c-21c (compound 2.9 μM) | TNF-α secreted in the presence of 17c-21c (compound 5.9 μM) | TNF-α secreted in the presence of 17c-21c (compound 11.8 μM) | TNF-α secreted in the presence of 17c-21c (compound 17.6 μM) | TNF-α secreted in the presence of 17c-21c (compound 23.5 μM) | TNF-α secreted in the presence of 17c-21c (compound 29.4 μM)
1 | O=C(CCCCCC(=O)OC1O[C@H](COC(=O)c2cc(O)c(O)c(O)c2)[C@@H](OC(=O)c2cc(O)c(O)c(O)c2)[C@H](OC(=O)c2cc(O)c(O)c(O)c2)[C@H]1OC(=O)c1cc(O)c(O)c(O)c1)OC1O[C@H](COC(=O)c2cc(O)c(O)c(O)c2)[C@@H](OC(=O)c2cc(O)c(O)c(O)c2)[C@H](OC(=O)c2cc(O)c(O)c(O)c2)[C@H]1OC(=O)c1cc(O)c(O)c(O)c1 (mixture of isomers) [Compound 20c, 1,1′-O-2,2′,3,3′,4,4′,6,6′-Tetrakis(3,4,5-trihyroxybenzoyl)-β,β′-D,D′-glucopyranosylpimelate] | 0 pg/mL | 0 pg/mL | 0 pg/mL | 0 pg/mL | 0 pg/mL | 0 pg/mL | 0 pg/mL | – | – | – | – | – | –
2 | O=C(OC[C@H]1O[C@@H](OC(=O)c2cccc(C(=O)O[C@@H]3O[C@H](COC(=O)c4cc(O)c(O)c(O)c4)[C@@H](OC(=O)c4cc(O)c(O)c(O)c4)[C@H](OC(=O)c4cc(O)c(O)c(O)c4)[C@H]3OC(=O)c3cc(O)c(O)c(O)c3)c2)[C@H](OC(=O)c2cc(O)c(O)c(O)c2)[C@@H](OC(=O)c2cc(O)c(O)c(O)c2)[C@@H]1OC(=O)c1cc(O)c(O)c(O)c1)c1cc(O)c(O)c(O)c1 [Compound 18c, 1,1′-O-2,2′,3,3′,4,4′,6,6′-Tetrakis(3,4,5-trihydroxybenzoyl)-β,β′-D-glucopyranosylisophthalate] | 8.9 ± 5.6 pg/mL | – | – | – | – | – | – | 11.9 ± 5.2 pg/mL | 6.7 ± 2.9 pg/mL | 9.5 ± 7.2 pg/mL | 11.4 ± 9.2 pg/mL | 3.3 ± 2.6 pg/mL | 8.5 ± 3.5 pg/mL
3 | O=C(OC[C@H]1O[C@@H](OC(=O)c2ccc(-c3ccc(C(=O)O[C@@H]4O[C@H](COC(=O)c5cc(O)c(O)c(O)c5)[C@@H](OC(=O)c5cc(O)c(O)c(O)c5)[C@H](OC(=O)c5cc(O)c(O)c(O)c5)[C@H]4OC(=O)c4cc(O)c(O)c(O)c4)cc3)cc2)[C@H](OC(=O)c2cc(O)c(O)c(O)c2)[C@@H](OC(=O)c2cc(O)c(O)c(O)c2)[C@@H]1OC(=O)c1cc(O)c(O)c(O)c1)c1cc(O)c(O)c(O)c1 [Compound 19c, 1,1′-O-2.2′,3,3′,4,4′,6,6′-Tetrakis(3,4,5-trihyroxybenzoyl)-β,β′-D,D′-glucopyranosylbiphenyl-4.4′-diester] | 73.4 ± 58.3 pg/mL | – | – | – | – | – | – | 50.9 ± 28.0 pg/mL | 8.0 ± 8.0 pg/mL | 9.5 ± 6.5 pg/mL | 24.5 ± 10.7 pg/mL | 67.6 ± 21.0 pg/mL | 117.8 ± 44.0 pg/mL
